# Measured values published in US8975406B2, “Compound useful for the treatment of degenerative and inflammatory diseases” (Galapagos N.V., priority 2011, dated 2015).
# pIC50: −log10 of the molar value.
# Experiments:
# [1] = biological target: T1, Recombinant human JAK2 catalytic domain (Homo sapiens, UniProt O60674); assay: JAK2 assay polyGT substrate; type: biochemical; details: 33P-gamma-ATP filter assay, 1 μM ATP
# T1 construct: catalytic domain (amino acids 808-1132; catalog number PV4210); GST; purchased Invitrogen PV4210
# T1 sequence (O60674 808-1132): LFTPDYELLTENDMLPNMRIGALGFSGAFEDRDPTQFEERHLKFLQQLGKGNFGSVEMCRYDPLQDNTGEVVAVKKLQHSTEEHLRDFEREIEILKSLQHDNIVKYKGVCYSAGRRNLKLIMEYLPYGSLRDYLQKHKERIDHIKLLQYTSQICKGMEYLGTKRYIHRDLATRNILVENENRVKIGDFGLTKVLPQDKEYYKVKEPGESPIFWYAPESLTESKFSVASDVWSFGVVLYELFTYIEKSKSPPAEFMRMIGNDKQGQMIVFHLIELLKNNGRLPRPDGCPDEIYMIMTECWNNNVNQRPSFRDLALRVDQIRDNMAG
# Description: Recombinant human JAK2 catalytic domain (amino acids 808-1132; catalog number PV4210) was purchased from Invitrogen. 0.05 mU of JAK2 was incubated with 2.5 μg polyGT substrate (Sigma catalog number P0275) in kinase reaction buffer (10 mM MOPS pH 7.5, 0.5 mM EDTA, 0.01% Brij-35, 1 mM DTT, 15 mM MgAc, 1 μM non-radioactive ATP, 0.25 μCi ^33P-gamma-ATP (Perkin Elmer, catalog number NEG602K001MC) final concentrations) with or without 5 μL containing test compound or vehicle (DMSO, 1% final concentration), in a total volume of 25 μL, in a polypropylene 96-well plate (Greiner, V-bottom). After 90 min at 30° C., reactions were stopped by adding of 25 μL/well of 150 mM phosphoric acid. All of the terminated kinase reaction was transferred to prewashed (75 mM phosphoric acid) 96 well filter plates (Perkin Elmer catalog number 6005177) using a cell harvester (Perkin Elmer). Plates were washed 6 times with 300 μL per well of a 75 mM phosphoric acid solution and the bottom of the plates was sealed. 40 μL/well of Microscint-20 was added, the top of the plates was sealed and readout was performed using the Topcount (Perkin Elmer). Kinase activity was calculated by subtracting counts per min (cpm) obtained in the presence of a positive control inhibitor (10 μM staurosporine) from cpm obtained in the presence of vehicle. The ability of a test compound to inhibit this activity was determined as: Percentage inhibition=((cpm determined for sample with test compound present−cpm determined for sample with positive control inhibitor)divided by(cpm determined in the presence of vehicle−cpm determined for sample with positive control inhibitor))*100.
# (§1) Dose dilution series were prepared for the compounds enabling the testing of dose-response effects in the JAK2 assay and the calculation of the IC50 for each compound. Each compound was routinely tested at concentration of 20 μM followed by a ⅓ serial dilution, 8 points (20 μM-6.67 μM-2.22 μM-740 nM-247 nM-82 nM-27 nM-9 nM) in a final concentration of 1% DMSO. When potency of compound series increased, more dilutions were prepared and/or the top concentration was lowered (e.g. 5 μM, 1 μM).
# [2] = biological target: T2, Recombinant human JAK1 catalytic domain (Homo sapiens, UniProt P23458); assay: JAK1 assay polyGT substrate; type: biochemical; details: 33P-gamma-ATP filter assay, 2 μM ATP
# T2 construct: catalytic domain (amino acids 866-1154; catalog number PV4774); purchased Invitrogen PV4774
# T2 sequence (P23458 866-1154): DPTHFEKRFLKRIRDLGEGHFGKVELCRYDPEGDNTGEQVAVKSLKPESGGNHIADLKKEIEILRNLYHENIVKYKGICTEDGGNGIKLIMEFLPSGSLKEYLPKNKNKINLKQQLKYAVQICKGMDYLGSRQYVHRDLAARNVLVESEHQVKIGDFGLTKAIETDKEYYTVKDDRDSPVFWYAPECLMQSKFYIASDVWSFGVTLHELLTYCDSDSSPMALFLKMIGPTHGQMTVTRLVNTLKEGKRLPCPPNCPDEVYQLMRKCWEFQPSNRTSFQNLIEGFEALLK
# Description: Recombinant human JAK1 catalytic domain (amino acids 866-1154; catalog number PV4774) was purchased from Invitrogen. 25 ng of JAK1 was incubated with 6.25 μg polyGT substrate (Sigma catalog number P0275) in kinase reaction buffer (15 mM Hepes pH7.5, 0.01% Tween20, 10 mM MgCl2, 2 μM non-radioactive ATP, 0.25 μCi ^33P-gamma-ATP (Perkin Elmer, catalog number NEG602K001MC) final concentrations) with or without 5 μL containing test compound or vehicle (DMSO, 1% final concentration), in a total volume of 25 μL, in a polypropylene 96-well plate (Greiner, V-bottom). After 75 min at 30° C., reactions were stopped by adding of 25 μL/well of 150 mM phosphoric acid. All of the terminated kinase reaction was transferred to prewashed (75 mM phosphoric acid) 96 well filter plates (Perkin Elmer catalog number 6005177) using a cell harvester (Perkin Elmer). Plates were washed 6 times with 300 μL per well of a 75 mM phosphoric acid solution and the bottom of the plates was sealed. 40 μL/well of Microscint-20 was added, the top of the plates was sealed and readout was performed using the Topcount (Perkin Elmer). Kinase activity was calculated by subtracting counts per min (cpm) obtained in the presence of a positive control inhibitor (10 μM staurosporine) from cpm obtained in the presence of vehicle. The ability of a test compound to inhibit this activity was determined as: Percentage inhibition=((cpm determined for sample with test compound present−cpm determined for sample with positive control inhibitor)divided by(cpm determined in the presence of vehicle−cpm determined for sample with positive control inhibitor))*100.
# as §1, with “JAK1” for “JAK2”
Compound,pIC50 [1],pIC50 [2]
"O=C(Nc1cc2c(-c3ccc4c(ccn4Cc4ccccc4)c3)cccn2n1)C1CC1 [Compound 3, N-(4-(1-benzyl-1H-indol-5-yl)pyrazolo[1,5-a]pyridin-2-yl)cyclopropanecarboxamide]",6.30 to 7.00,7.00 to 11.00
"O=C(NCCc1ccccc1)c1ccc(-c2cccn3nc(NC(=O)C4CC4)cc23)cc1 [Compound 5, 4-(2-(cyclopropanecarboxamido)pyrazolo[1,5-a]pyridin-4-yl)-N-phenethylbenzamide]",7.00 to 11.00,7.00 to 11.00
"O=C(NCCOc1ccccc1)c1ccc(-c2cccn3nc(NC(=O)C4CC4)cc23)cc1 [Compound 6, 4-(2-(cyclopropanecarboxamido)pyrazolo[1,5-a]pyridin-4-yl)-N-(2-phenoxyethyl)benzamide]",7.00 to 11.00,7.00 to 11.00

# Second part, the compound after the results:
pIC50 [1],pIC50 [2],Compound
7.00 to 11.00,7.00 to 11.00,"COc1ccc(-c2cccn3nc(NC(=O)C4CC4)cc23)cc1 [Compound 1, N-(4-(4-methoxyphenyl)pyrazolo[1,5-a]pyridin-2-yl)cyclopropanecarboxamide]"
6.30 to 7.00,7.00 to 11.00,"O=C(Nc1cc2c(-c3ccc(OCc4ccccc4)cc3)cccn2n1)C1CC1 [Compound 2, N-(4-(4-(benzyloxy)phenyl)pyrazolo[1,5-a]pyridin-2-yl)cyclopropanecarboxamide]"
7.00 to 11.00,7.00 to 11.00,"O=C(Nc1cc2c(-c3ccc4[nH]ccc4c3)cccn2n1)C1CC1 [Compound 4, N-(4-(1H-indol-5-yl)pyrazolo[1,5-a]pyridin-2-yl)cyclopropanecarboxamide]"
< 6.00,< 6.00,"COc1ccc(-c2cccn3nc(NC(=O)C4CC4)c(-c4ccccc4)c23)cc1 [Compound 7, N-(4-(4-methoxyphenyl)-3-phenylpyrazolo[1,5-a]pyridin-2-yl)cyclopropanecarboxamide]"
7.00 to 11.00,7.00 to 11.00,"O=C(Nc1cc2c(-c3ccc(OCc4cccnc4)cc3)cccn2n1)C1CC1 [Compound 8, N-(4-(4-(pyridin-3-ylmethoxy)phenyl)pyrazolo[1,5-a]pyridin-2-yl)cyclopropanecarboxamide]"
